From ChEMBL document CHEMBL4145521, “Regioselective synthesis of 3,4-diaryl-5-unsubstituted isoxazoles, analogues of natural cytostatic combretastatin A4” (Eur J Med Chem, 2018)

What was measured:
Type in all cases: functional
[1] = test system: UACC-62; assay: Cytotoxicity against human UACC62 cells assessed as cell growth at 0.1 uM incubated for 48 hrs by sulforhodamine B assay relative to control; settings: UACC-62, 48 h, read-out: Activity
[2] = test system: U-251; assay: Cytotoxicity against human U251 cells assessed as cell growth at 0.1 uM incubated for 48 hrs by sulforhodamine B assay relative to control; settings: U-251, 48 h, read-out: Activity
[3] = test system: M14; assay: Cytotoxicity against human M14 cells assessed as cell growth at 10 uM incubated for 48 hrs by sulforhodamine B assay relative to control; settings: M14, 48 h, read-out: Activity
[4] = test system: SF-268; assay: Cytotoxicity against human SF268 cells assessed as cell growth at 0.01 uM incubated for 48 hrs by sulforhodamine B assay relative to control; settings: SF-268, 48 h, read-out: Activity
[5] = test system: IGROV-1; assay: Cytotoxicity against human IGROV1 cells assessed as cell growth at 100 uM incubated for 48 hrs by sulforhodamine B assay relative to control; settings: IGROV-1, 48 h, read-out: Activity
[6] = test system: T47D; assay: Cytotoxicity against human T47D cells assessed as cell growth at 0.1 uM incubated for 48 hrs by sulforhodamine B assay relative to control; settings: read-out: Activity
[7] = test system: RXF 393; assay: Cytotoxicity against human RXF393 cells assessed as cell growth at 0.1 uM incubated for 48 hrs by sulforhodamine B assay relative to control; settings: RXF 393, 48 h, read-out: Activity
[8] = test system: MDA-MB-435; assay: Cytotoxicity against human MDA-MB-435 cells assessed as cell growth at 0.01 uM incubated for 48 hrs by sulforhodamine B assay relative to control; settings: MDA-MB-435, 48 h, read-out: Activity
[9] = test system: HL-60(TB); assay: Cytotoxicity against human HL-60(TB) cells assessed as cell growth at 1 uM incubated for 48 hrs by sulforhodamine B assay relative to control; settings: HL-60, 48 h, read-out: Activity
[10] = test system: OVCAR-4; assay: Cytotoxicity against human OVCAR4 cells assessed as cell growth at 0.01 uM incubated for 48 hrs by sulforhodamine B assay relative to control; settings: OVCAR-4, 48 h, read-out: Activity
[11] = test system: COLO 205; assay: Cytotoxicity against human COLO205 cells assessed as cell growth at 10 uM incubated for 48 hrs by sulforhodamine B assay relative to control; settings: COLO 205, 48 h, read-out: Activity
[12] = test system: UACC-62; assay: Cytotoxicity against human UACC62 cells assessed as cell growth at 0.01 uM incubated for 48 hrs by sulforhodamine B assay relative to control; settings: UACC-62, 48 h, read-out: Activity
[13] = test system: SNB-19; assay: Cytotoxicity against human SNB19 cells assessed as cell growth at 0.1 uM incubated for 48 hrs by sulforhodamine B assay relative to control; settings: SNB-19, 48 h, read-out: Activity
[14] = test system: HCT-15; assay: Cytotoxicity against human HCT15 cells assessed as cell growth at 100 uM incubated for 48 hrs by sulforhodamine B assay relative to control; settings: HCT-15, 48 h, read-out: Activity
[15] = test system: T47D; assay: Cytotoxicity against human T47D cells assessed as cell growth at 100 uM incubated for 48 hrs by sulforhodamine B assay relative to control; settings: read-out: Activity
[16] = test system: SF-539; assay: Cytotoxicity against human SF539 cells incubated for 48 hrs by sulforhodamine B assay; settings: SF-539, 48 h
[17] = test system: SN12C; assay: Cytotoxicity against human SN12C cells assessed as cell growth at 1 uM incubated for 48 hrs by sulforhodamine B assay relative to control; settings: read-out: Activity
[18] = test system: CCRF-CEM; assay: Cytotoxicity against human CCRF-CEM cells incubated for 48 hrs by sulforhodamine B assay
[19] = test system: OVCAR-4; assay: Cytotoxicity against human OVCAR4 cells assessed as cell growth at 10 uM incubated for 48 hrs by sulforhodamine B assay relative to control; settings: OVCAR-4, 48 h, read-out: Activity
[20] = test system: SNB-19; assay: Cytotoxicity against human SNB19 cells assessed as cell growth at 1 uM incubated for 48 hrs by sulforhodamine B assay relative to control; settings: SNB-19, 48 h, read-out: Activity
[21] = test system: HCT-116; assay: Cytotoxicity against human HCT116 cells incubated for 48 hrs by sulforhodamine B assay; settings: HCT-116, 48 h
[22] = test system: HL-60(TB); assay: Cytotoxicity against human HL-60(TB) cells incubated for 48 hrs by sulforhodamine B assay; settings: HL-60, 48 h
[23] = test system: RPMI-8226; assay: Cytotoxicity against human RPMI8226 cells assessed as cell growth at 1 uM incubated for 48 hrs by sulforhodamine B assay relative to control; settings: RPMI-8226, 48 h, read-out: Activity
[24] = test system: COLO 205; assay: Cytotoxicity against human COLO205 cells assessed as cell growth at 0.1 uM incubated for 48 hrs by sulforhodamine B assay relative to control; settings: COLO 205, 48 h, read-out: Activity
[25] = test system: HOP-62; assay: Cytotoxicity against human HOP62 cells incubated for 48 hrs by sulforhodamine B assay; settings: HOP-62, 48 h
[26] = test system: UO-31; assay: Cytotoxicity against human UO31 cells assessed as cell growth at 1 uM incubated for 48 hrs by sulforhodamine B assay relative to control; settings: UO-31, 48 h, read-out: Activity
[27] = test system: SF-268; assay: Cytotoxicity against human SF268 cells assessed as cell growth at 0.1 uM incubated for 48 hrs by sulforhodamine B assay relative to control; settings: SF-268, 48 h, read-out: Activity
[28] = test system: NCI-H23; assay: Cytotoxicity against human NCI-H23 cells assessed as cell growth at 10 uM incubated for 48 hrs by sulforhodamine B assay relative to control; settings: NCI-H23, 48 h, read-out: Activity
[29] = test system: EKVX; assay: Cytotoxicity against human EKVX cells assessed as cell growth at 100 uM incubated for 48 hrs by sulforhodamine B assay relative to control; settings: read-out: Activity
[30] = test system: UO-31; assay: Cytotoxicity against human UO31 cells incubated for 48 hrs by sulforhodamine B assay; settings: UO-31, 48 h
[31] = test system: NCI-H226; assay: Cytotoxicity against human NCI-H226 cells assessed as cell growth at 0.1 uM incubated for 48 hrs by sulforhodamine B assay relative to control; settings: NCI-H226, 48 h, read-out: Activity
[32] = read-out: LC50 (the source's name)
[33] = read-out: pLC50 (the source's name) (converted)

COc1ccc(-c2nocc2-c2cc(OC)c(OC)c(OC)c2)cc1
growth at 0.1 µM [1]: 36% | growth at 0.1 µM [2]: 48% | growth at 10 µM [3]: 13% | growth at 0.01 µM [4]: 95% | growth at 100 µM [5]: 2% | growth at 0.1 µM [6]: 43% | growth at 0.1 µM [7]: 86% | growth at 0.01 µM [8]: 79% | growth at 1 µM [9]: -17% | growth at 0.01 µM [10]: 86% | growth at 10 µM [11]: -27% | growth at 0.01 µM [12]: 90% | growth at 0.1 µM [13]: 69% | growth at 100 µM [14]: 1% | growth at 100 µM [15]: -4% | GI50 ([16]; read-out: GI50): 0.173 µM | LC50 (concentration killing 50% of cells) ([16]; read-out: LC50): > 100 µM | TGI ([16]; read-out: TGI): 13.7 µM | GI50 ([16]; read-out: pGI50 (converted)): 0.174 µM | LC50 (concentration killing 50% of cells) ([16]; read-out: pLC50 (converted)): > 100 µM | TGI ([16]; read-out: pTGI (converted)): 13.8 µM | growth at 1 µM [17]: 47% | GI50 ([18]; read-out: GI50): 0.404 µM | LC50 ([18]; read-out: LC50): > 100 µM | TGI ([18]; read-out: TGI): > 100 µM | GI50 ([18]; read-out: pGI50 (converted)): 0.407 µM | LC50 ([18]; read-out: pLC50 (converted)): > 100 µM | TGI ([18]; read-out: pTGI): > 100 µM | growth at 10 µM [19]: 32% | growth at 1 µM [20]: 36% | GI50 ([21]; read-out: GI50): 0.039 µM | LC50 (concentration killing 50% of cells) ([21]; read-out: LC50): > 100 µM | TGI ([21]; read-out: TGI): 14.7 µM | GI50 ([21]; read-out: pGI50 (converted)): 0.0389 µM | LC50 (concentration killing 50% of cells) ([21]; read-out: pLC50 (converted)): > 100 µM | TGI ([21]; read-out: pTGI (converted)): 14.8 µM | GI50 ([22]; read-out: GI50): 0.0488 µM | CC50 [22, 32]: > 100 µM | TGI ([22]; read-out: TGI): 0.391 µM | GI50 ([22]; read-out: pGI50 (converted)): 0.049 µM | CC50 [22, 33]: > 100 µM | TGI ([22]; read-out: pTGI (converted)): 0.389 µM | growth at 1 µM [23]: 32% | growth at 0.1 µM [24]: 37% | GI50 ([25]; read-out: GI50): 0.259 µM | LC50 ([25]; read-out: LC50): > 100 µM | TGI ([25]; read-out: TGI): > 100 µM | GI50 ([25]; read-out: pGI50 (converted)): 0.257 µM | LC50 ([25]; read-out: pLC50 (converted)): > 100 µM | TGI ([25]; read-out: pTGI): > 100 µM | growth at 1 µM [26]: 43% | growth at 0.1 µM [27]: 63% | growth at 10 µM [28]: 19% | growth at 100 µM [29]: 7% | GI50 ([30]; read-out: GI50): 0.545 µM | CC50 [30, 32]: > 100 µM | TGI ([30]; read-out: TGI): 28.7 µM | GI50 ([30]; read-out: pGI50 (converted)): 0.55 µM | CC50 [30, 33]: > 100 µM | TGI ([30]; read-out: pTGI (converted)): 28.8 µM | growth at 0.1 µM [31]: 90%
